± gives the expanded uncertainty stated by the source.
Details: 298.15 K; 101.33 kPa; Liquid

Compound	mass density [kg/m3]
CC(=O)c1ccccc1 [acetophenone]	1023 ± 0.7
Clc1ccccc1 [chlorobenzene]	1100.9 ± 0.5
Cc1ccccc1 [toluene]	862.27 ± 0.23
COc1ccccc1 [anisole]	989.13 ± 0.21
